Source: PMC6154719 (Molecules : A Journal of Synthetic Chemistry and Natural …, 2017)

Key:
Assay type in all cases: in vitro ADME
CYP3A4/5 = CYP3A4/5 midazolam 1′-hydroxylation in human liver microsomes (HPLC); conditions: substrate midazolam, n = 2
Method: (§1) Enzyme activities were assayed in human and rat liver cytosolic and microsomal fractions. The enzyme assays (each performed in 4–8 replicates) were repeated three times (HPLC measurement of CYP activities was repeated only twice, Table 3). Inhibition studies were carried out by incubation of specific substrates in the presence of sesquiterpenes (in the range 0–100 µM).
(§2) Enzyme activities of individual CYP forms were measured according to established protocols. The following microsomal CYP activities were tested: CYP2A6, coumarin 7-hydroxylation; CYP2B6, 7-ethoxy-4-(trifluoromethyl)coumarin 7-deethylation, CYP2C9, diclofenac 4′-hydroxylation, CYP2C19 assay, S-mephenytoin 4′-hydroxylation, CYP2D6 on bufuralol 1′-hydroxylation, CYP2E1, chlorzoxazone 6-hydroxylation and CYP3A4, testosterone 6β-hydroxylation, and midazolam 1′-hydroxylation. Activities were measured using the Prominence HPLC system (Shimadzu, Kyoto, Japan), equipped with a LiChroCART 250-4 LiChrospher 100 RP-18 column or Chromolith®HighResolution RP-18 end-capped column (Merck, Darmstadt, Germany) and UV or fluorescence detection, according to the cited literature. […] CYP1A2, 7-ethoxyresorufin O-deethylation, and CYP3A4/2B6 (human), CYP2B1 (rat), benzyloxyresorufin O-debenzylation were measured using the microplate reader Tecan Infinite M200 (Tecan Group; Mannedorf, Switzerland). […]

[1] = system: CYP2B/3A (CYP3A4/2B6, BROD activity); assay: CYP2B/3A (BROD activity, benzyloxyresorufin O-debenzylation) in human liver microsomes; conditions: probe benzyloxyresorufin (O-debenzylation), 0.5-5.0 µM; human liver microsomes, BROD activity
Method: as §1
Enzyme activities of individual CYP forms were measured according to established protocols. The following microsomal CYP activities were tested: CYP2A6, coumarin 7-hydroxylation; CYP2B6, 7-ethoxy-4-(trifluoromethyl)coumarin 7-deethylation, CYP2C9, diclofenac 4′-hydroxylation, CYP2C19 assay, S-mephenytoin 4′-hydroxylation, CYP2D6 on bufuralol 1′-hydroxylation, CYP2E1, chlorzoxazone 6-hydroxylation and CYP3A4, testosterone 6β-hydroxylation, and midazolam 1′-hydroxylation. Activities were measured using the Prominence HPLC system (Shimadzu, Kyoto, Japan), equipped with a LiChroCART 250-4 LiChrospher 100 RP-18 column or Chromolith®HighResolution RP-18 end-capped column (Merck, Darmstadt, Germany) and UV or fluorescence detection, according to the cited literature. Further incubation details are described either in the corresponding references, as well as in the papers from this laboratory e.g., [42, 43, 44]. CYP1A2, 7-ethoxyresorufin O-deethylation, and CYP3A4/2B6 (human), CYP2B1 (rat), benzyloxyresorufin O-debenzylation were measured using the microplate reader Tecan Infinite M200 (Tecan Group; Mannedorf, Switzerland).
Sesquiterpenes CNER, TNER and FAR, non-volatile liquids, were pipetted, and proper concentration was calculated according to density. All compounds were dissolved in DMSO. The final solvent concentration in the inhibition assays was 1%, which had no effect on the enzyme activity (data not shown). Non-enzymatic interference of sesquiterpenes with some compounds in the reaction mixtures (e.g., fluorescence enhancing or quenching) was considered and excluded. All experiments were performed in three replicates, if not stated otherwise.
CNER, TNER and FAR at a fixed concentration of 100 µM were screened for inhibition of cytosolic AKR1A1, AKR1C, CBR1, NQO1, SULT, and GST, and microsomal CYPs and UGT. The degree of inhibition caused by sesquiterpenes was compared with non-inhibited control reactions, which contained solvent without sesquiterpenes.
The concentration of sesquiterpenes required for 50% inhibition of enzyme activity, the IC50 value, was determined. Their final concentrations in the reaction mixture were proposed to cover the entire inhibitory range of these compounds (1–100 µM). The IC50 values for each sesquiterpene were determined by plotting sigmoidal dose response curves of specific enzyme activity vs. logarithm of sesquiterpene concentration using GraphPad Prism version 6.07 for Windows (GraphPad Software Inc., La Jolla, CA, USA).
The kinetic inactivation study of the CYP1A2 (EROD activity) and CYP2B/3A (BROD activity), both in rat and human, with TNER, was performed to find out the mechanism of enzyme inhibition by this sesquiterpene. Mechanism of EROD and BROD inhibition was tested at the final ethoxyresorufin or benzyloxyresorufin concentrations 0.5–5.0 µM. The concentration of TNER was 5.0 µM.
Experimental data were fitted to the Michaelis-Menten equation, basic kinetic parameters were determined using the program GraphPad Prism version 6.07 for Windows. The type of inhibition was estimated using a Lineweaver-Burk (double-reciprocal) plot.

CYP2C19 = molecular target: T1, CYP2C19 (Homo sapiens, UniProt P33261); assay: CYP2C19 S-mephenytoin 4′-hydroxylation in human liver microsomes (HPLC); conditions: substrate S-mephenytoin, n = 2
T1 construct: other CYP-mediated activities in human liver microsomes; from tissue; host or cells: human liver microsomal fraction
T1 sequence (P33261 whole entry): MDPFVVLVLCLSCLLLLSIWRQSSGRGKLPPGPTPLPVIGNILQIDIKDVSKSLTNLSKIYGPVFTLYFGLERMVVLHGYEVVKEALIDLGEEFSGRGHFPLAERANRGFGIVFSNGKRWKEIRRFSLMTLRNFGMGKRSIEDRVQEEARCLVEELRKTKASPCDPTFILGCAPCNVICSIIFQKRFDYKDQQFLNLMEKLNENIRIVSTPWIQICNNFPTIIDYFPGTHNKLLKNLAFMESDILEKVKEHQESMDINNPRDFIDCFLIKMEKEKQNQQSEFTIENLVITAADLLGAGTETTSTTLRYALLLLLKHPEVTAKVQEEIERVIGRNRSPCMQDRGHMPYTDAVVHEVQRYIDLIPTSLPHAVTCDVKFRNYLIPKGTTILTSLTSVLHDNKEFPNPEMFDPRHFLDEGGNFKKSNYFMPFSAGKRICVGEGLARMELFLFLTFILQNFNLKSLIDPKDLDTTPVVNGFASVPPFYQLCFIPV
Method: as §1, §2

Row | Compound | IC50 (CYP3A4/5; human, liver microsomes, probe midazolam) [µM] | IC50 (CYP3A4/5) [µM] | Ki [1] [µM] | IC50 (CYP2C19) [µM]
1 | C=CC(C)(O)CC/C=C(/C)CCC=C(C)C (stereo not drawn) [CNER, cis-nerolidol] | 66 | 66.1 ± 30.5 |  | 
2 | C=CC(C)(O)CC/C=C(\C)CCC=C(C)C (stereo not drawn) [TNER, trans-nerolidol] |  |  | 2.41 ± 0.33 | 76.4 ± 52.1
